Laboratory results from patent US10125123B2, “Small molecule IRE1-α inhibitors” (Cornell University, priority 2016, dated 2018).

Target: T1, IRE1α (Homo sapiens, UniProt O75460)
T1 construct: purchased SignalChem
Test: In vitro FRET assay (XBP1 RNA probe cleavage by IRE1α)
Conditions: biochemical FRET assay, 2 nM IRE1α
Procedure: In vitro FRET assay was performed to evaluate the ability of select compounds to inhibit IRE1, the results of which are summarized in the following table.
To perform the in vitro FRET assay, 1× complete assay buffer (CAB; […], 50 mM sodium citrate pH 7.15, 1 mM magnesium acetate, 0.02% Tween 20) was used to dilute SignalChem IRE1α in protein to a final concentration of 2 nM. Selected compounds were serially diluted with DMSO in a non-binding black 384-well plate for a total of 15 μl in each well. 2 μl of the serially diluted compound or DMSO control were then added to new wells containing 98 μl of 1×CAB, for a total volume of 100 μl, 10 μl of which were then transferred to wells of a new plate. 5 μl of the diluted IRE1α was then added to each well. 5 μl of a […] XBP1 RNA probe was then added to each well. Fluorescence was then read over 30 minutes in kinetic mode (485/515 nm). Two RNA probes were used, XBP1 wildtype (CAUGUCCGCAGCACAUG; SEQ ID NO: 1) which is able to be spliced by active IRE1α or XBP1 mutant (CAUGUCCCCAGCACAUG; SEQ ID NO: 2) which is unable to be spliced. Each probe contained a 5′ 6-FAM modification and a 3′ IOWA Black FQ modification. […]

T1 sequence (O75460 19-977): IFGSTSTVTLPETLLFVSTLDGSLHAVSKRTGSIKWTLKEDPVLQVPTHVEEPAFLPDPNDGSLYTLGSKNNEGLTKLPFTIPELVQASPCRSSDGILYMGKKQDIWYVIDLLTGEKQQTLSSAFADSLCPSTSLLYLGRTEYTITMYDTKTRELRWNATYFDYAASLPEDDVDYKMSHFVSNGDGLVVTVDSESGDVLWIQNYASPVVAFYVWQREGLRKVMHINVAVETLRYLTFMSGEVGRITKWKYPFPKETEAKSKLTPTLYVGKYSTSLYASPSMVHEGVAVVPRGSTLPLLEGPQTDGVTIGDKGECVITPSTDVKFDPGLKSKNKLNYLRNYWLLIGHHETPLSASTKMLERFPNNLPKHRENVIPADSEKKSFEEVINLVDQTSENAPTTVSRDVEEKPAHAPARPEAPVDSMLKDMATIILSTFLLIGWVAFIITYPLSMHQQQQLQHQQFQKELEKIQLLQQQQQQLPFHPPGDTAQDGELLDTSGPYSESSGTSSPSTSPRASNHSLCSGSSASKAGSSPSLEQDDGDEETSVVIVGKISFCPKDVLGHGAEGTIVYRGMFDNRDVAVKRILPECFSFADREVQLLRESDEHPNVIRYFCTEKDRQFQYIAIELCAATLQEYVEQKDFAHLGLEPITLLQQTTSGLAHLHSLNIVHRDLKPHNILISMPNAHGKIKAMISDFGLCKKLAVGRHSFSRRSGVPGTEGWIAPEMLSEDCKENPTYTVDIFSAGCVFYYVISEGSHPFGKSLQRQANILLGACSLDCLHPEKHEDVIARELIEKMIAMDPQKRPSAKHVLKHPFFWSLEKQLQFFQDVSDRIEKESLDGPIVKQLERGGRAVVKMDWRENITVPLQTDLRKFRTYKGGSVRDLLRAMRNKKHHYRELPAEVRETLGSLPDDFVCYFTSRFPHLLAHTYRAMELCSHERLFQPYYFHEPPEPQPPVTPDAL

Row | SMILES | EC50 [µM]
1 | CN1CCN(Cc2ccc(NC(=O)Nc3nn(C)c4cc(-c5cccnc5)ccc34)cc2C(F)(F)F)CC1 [Compound 1, 1-(1-methyl-6-(pyridin-3-yl)-1H-indazol-3-yl)-3-(4-((4-methylpiperazin-1-yl)methyl)-3-(trifluoromethyl)phenyl)urea] | ≤ 5
2 | CN1CCN(Cc2ccc(NC(=O)Nc3cc(-c4ccc5cnoc5c4)n(C)n3)cc2C(F)(F)F)CC1 [Compound 2, 1-(5-(benzo[d]isoxazol-6-yl)-1-methyl-1H-pyrazol-3-yl)-3-(4-((4-methylpiperazin-1-yl)methyl)-3-(trifluoromethyl)phenyl)urea] | 5 to 50
3 | CN1CCN(Cc2ccc(NC(=O)Nc3cc(-c4ccc5oncc5c4)n(C)n3)cc2C(F)(F)F)CC1 [Compound 3, 1-(5-(benzo[d]isoxazol-5-yl)-1-methyl-1H-pyrazol-3-yl)-3-(4-((4-methylpiperazin-1-yl)methyl)-3-(trifluoromethyl)phenyl)urea] | > 100
4 | CN1CCN(Cc2ccc(NC(=O)Nc3cc(-c4ccn5ccnc5c4)n(C)n3)cc2C(F)(F)F)CC1 [Compound 4, 1-(5-(imidazo[1,2-a]pyridin-7-yl)-1-methyl-1H-pyrazol-3-yl)-3-(4-((4-methylpiperazin-1-yl)methyl)-3-(trifluoromethyl)phenyl)urea] | > 100
5 | CN1CCN(Cc2ccc(NC(=O)Nc3cc(-c4cccn5ccnc45)n(C)n3)cc2C(F)(F)F)CC1 [Compound 5] | > 100
6 | CN1CCN(Cc2ccc(NC(=O)Nc3cc(-c4cccc5nccnc45)n(C)n3)cc2C(F)(F)F)CC1 [Compound 6] | > 100
7 | CN1CCN(Cc2ccc(NC(=O)Nc3cc(-c4cccnc4)[nH]n3)cc2C(F)(F)F)CC1 [Compound 7, 1-(4-((4-methylpiperazin-1-yl)methyl)-3-(trifluoromethyl)phenyl)-3-(5-(pyridin-3-yl)-1H-pyrazol-3-yl)urea] | 5 to 50
8 | CN1CCN(Cc2ccc(NC(=O)Nc3cc(-c4ccc5nc(C(F)F)[nH]c(=O)c5c4)n(C)n3)cc2C(F)(F)F)CC1 [Compound 8, 1-(5-(2-(difluoromethyl)-4-oxo-3,4-dihydroquinazolin-6-yl)-1-methyl-1H-pyrazol-3-yl)-3-(4-((4-methylpiperazin-1-yl)methyl)-3-(trifluoromethyl)phenyl)urea] | ≤ 5
9 | CN1CCN(Cc2ccc(NC(=O)Nc3nn(C)c4cc(-c5cnc(N)nc5)ccc34)cc2C(F)(F)F)CC1 [Compound 9, 1-(6-(2-aminopyrimidin-5-yl)-1-methyl-1H-indazol-3-yl)-3-(4-((4-methylpiperazin-1-yl)methyl)-3-(trifluoromethyl)phenyl)urea] | ≤ 5
10 | CN1CCN(Cc2ccc(NC(=O)Nc3nn(C)c4cc(-c5cnc(N)cn5)ccc34)cc2C(F)(F)F)CC1 [Compound 10, 1-(6-(5-aminopyrazin-2-yl)-1-methyl-1H-indazol-3-yl)-3-(4-((4-methylpiperazin-1-yl)methyl)-3-(trifluoromethyl)phenyl)urea] | 5 to 50
11 | CN1CCN(Cc2ccc(NC(=O)Nc3n[nH]c4cc(-c5cnc(N)nc5)ccc34)cc2C(F)(F)F)CC1 [Compound 11, 1-(6-(2-aminopyrimidin-5-yl)-1H indazol-3-yl)-3-(4-((4-methylpiperazin-1-yl)methyl)-3-(trifluoromethyl)phenyl)urea] | 5 to 50
12 | CN1CCN(Cc2ccc(NC(=O)Nc3cc(-c4ccnc5c4ccn5C)n(C)n3)cc2C(F)(F)F)CC1 [Compound 12, 1-(1-methyl-5-(1-methyl-1H-pyrrolo[2,3-b]pyridin-4-yl)-1H-pyrazol-3-yl)-3-(4-((4-methylpiperazin-1-yl)methyl)-3-(trifluoromethyl)phenyl)urea] | 5 to 50
13 | O=C(Nc1ccc(CN2CCNCC2)c(C(F)(F)F)c1)Nc1ccc2oc(-c3cccnc3)nc2c1 [Compound 13, 1-(4-(piperazin-1-ylmethyl)-3-(trifluoromethyl)phenyl)-3-(2-(pyridin-3-yl)benzo[d]oxazol-5-yl)urea] | > 100
14 | O=C(Nc1ccc(CN2CCN(Cc3ccccc3)CC2)c(C(F)(F)F)c1)Nc1ccc2oc(-c3cccnc3)nc2c1 [Compound 14, 1-(4-((4-benzylpiperazin-1-yl)methyl)-3-(trifluoromethyl)phenyl)-3-(2-(pyridin-3-yl)benzo[d]oxazol-5-yl)urea] | 50 to 100
15 | CN1CCN(Cc2ccc(NC(=O)Nc3ccc4oc(-c5cccnc5)nc4c3)cc2C(F)(F)F)CC1 [Compound 15, 1-(4-((4-methylpiperazin-1-yl)methyl)-3-(trifluoromethyl)phenyl)-3-(2-(pyridin-3-yl)benzo[d]oxazol-5-yl)urea] | > 100
16 | CN1CCN(Cc2ccc(NC(=O)Nc3ccc4oc(-c5cnn6ccccc56)nc4c3)cc2C(F)(F)F)CC1 [Compound 16, 1-(4-((4-methylpiperazin-1-yl)methyl)-3-(trifluoromethyl)phenyl)-3-(2-(pyrazolo[1,5-a]pyridin-3-yl)benzo[d]oxazol-5-yl)urea] | ≤ 5
17 | Cc1cc2oc(-c3cnn4ccccc34)nc2cc1NC(=O)Nc1ccc(CN2CCN(C)CC2)c(C(F)(F)F)c1 [Compound 17, 1-(6-methyl-2-(pyrazolo[1,5-a]pyridin-3-yl)benzo[d]oxazol-5-yl)-3-(4-((4-methylpiperazin-1-yl)methyl)-3-(trifluoromethyl)phenyl)urea] | > 100
18 | Cc1c(NC(=O)Nc2ccc(CN3CCN(C)CC3)c(C(F)(F)F)c2)ccc2oc(-c3cnn4ccccc34)nc12 [Compound 18, 1-(4-methyl-2-(pyrazolo[1,5-a]pyridin-3-yl)benzo[d]oxazol-5 yl)-3-(4-((4-methylpiperazin-1-yl)methyl)-3-(trifluoromethyl)phenyl)urea] | > 100
19 | CN1CCN(CCc2cccc(NC(=O)Nc3cc(-c4ccc5ccncc5c4)n(C)n3)c2)CC1 [Compound 19, 1-(5-(isoquinolin-7-yl)-1-methyl-1H-pyrazol-3-yl)-3-(3-(2-(4-methylpiperazin-1-yl)ethyl)phenyl)urea] | > 100
20 | Cn1nc(NC(=O)c2cccc(-n3cccn3)c2)cc1-c1ccc2ccncc2c1 [Compound 20, N-(5-(isoquinolin-7-yl)-1-methyl-1H-pyrazol-3-yl)-3-(1H-pyrazol-1-yl)benzamide] | > 100
21 | CN1CCN(Cc2ccc(NC(=O)Nc3cc(-c4ccc5ccncc5c4)n(C)n3)c(-c3cnn(C)c3)c2)CC1 [Compound 21, 1-(5-(isoquinolin-7-yl)-1-methyl-1H-pyrazol-3-yl)-3-(2-(1-methyl-1H-pyrazol-4-yl)-4-((4-methylpiperazin-1-yl)methyl)phenyl)urea] | 50 to 100
22 | CN1CCN(Cc2ccc(NC(=O)Nc3cc(-c4ccc5ncncc5c4)n(C)n3)cc2C(F)(F)F)CC1 [Compound 22, 1-(1-methyl-5-(quinazolin-6-yl)-1H-pyrazo1-3-yl)-3-(4-((4-methylpiperazin-1-yl)methyl)-3-(trifluoromethyl)phenyl)urea] | ≤ 5
23 | CN1CCN(Cc2ccc(NC(=O)Nc3cc(-c4ccc5ccc(O)nc5c4)n(C)n3)cc2C(F)(F)F)CC1 [Compound 23, 1-(5-(2-hydroxyquinolin-7-yl)-1-methyl-1H-pyrazol-3-y1)-3-(4-((4-methylpiperazin-1-yl)methyl)-3-(trifluoromethyl)phenyl)urea] | 5 to 50
24 | CN1CCN(Cc2ccc(NC(=O)Nc3cc(-c4ccc5ccncc5c4)n(C)n3)cc2C(F)(F)F)CC1 [Compound 24, 1-(5-(isoquinolin-7-yl)-1-methyl-1H-pyrazol-3-yl)-3-(4-((4-methylpiperazin-1-yl)methyl)-3-(trifluoromethyl)phenyl)urea] | ≤ 5
25 | CN1CCN(Cc2ccc(NC(=O)Nc3cc(-c4cnc5ccccc5c4)n(C)n3)cc2C(F)(F)F)CC1 [Compound 25, 1-(1-methyl-5-(quinolin-3-yl)-1H-pyrazol-3-yl)-3-(4-((4-methylpiperazin-1-yl)methyl)-3-(trifluoromethyl)phenyl)urea] | 5 to 50
26 | CN1CCN(Cc2ccc(NC(=O)Nc3cc(-c4ccc5cc(N)ncc5c4)n(C)n3)cc2C(F)(F)F)CC1 [Compound 26, 1-(5-(3-aminoisoquinolin-7-yl)-1-methyl-1H-pyrazol-3-yl)-3-(4-((4-methylpiperazin-1-yl)methyl)-3-(trifluoromethyl)phenyl)urea] | ≤ 5
27 | CN1CCN(Cc2ccc(NC(=O)Nc3cc(-c4ccc5nc(N)nc(O)c5c4)n(C)n3)cc2C(F)(F)F)CC1 [Compound 27, 1-(5-(2-amino-4-hydroxyquinazolin-6-yl)-1-methyl-1H-pyrazol-3-yl)-3-(4-((4-methylpiperazin-1-yl)methyl)-3-(trifluoromethyl)phenyl)urea] | ≤ 5
28 | CN1CCN(Cc2ccc(NC(=O)Nc3cc(-c4ccc5ncnc(N)c5c4)n(C)n3)cc2C(F)(F)F)CC1 [Compound 28, 1-(5-(4-aminoquinazolin-6-yl)-1-methyl-1H-pyrazol-3-yl)-3-(4-((4-methylpiperazin-1-yl)methyl)-3-(trifluoromethyl)phenyl)urea] | ≤ 5
29 | CN1CCN(Cc2ccc(NC(=O)Nc3cc(-c4ccc5nc(N)nc(N)c5c4)n(C)n3)cc2C(F)(F)F)CC1 [Compound 29, 1-(5-(2,4-diaminoquinazolin-6-yl)-1-methyl-1H-pyrazol-3-yl)-3-(4-((4-methylpiperazin-1-yl)methyl)-3-(trifluoromethyl)phenyl)urea] | ≤ 5
